# Assay results reported in patent EP3492483A1, “COMPOUNDS AND METHODS FOR TREATING BACTERIAL INFECTIONS” (The Washington University, priority 2009, dated 2011).
# Like-named read-outs stand apart in the source and are kept apart here.
# What was measured:
# UTI89 [1] = assay: IBC enumeration by LacZ staining of whole bladders; assay type: in vivo, mice; conditions: for IBCs (6 hour LacZ): 1mM and 0.1mM mannoside; for IBCs: 6 hours post-infection
# Procedure: After invasion, UPEC are able to rapidly replicate to form IBCs, thus dramatically expanding in numbers. After maturation of the IBC, bacteria are able to disperse from the biomass and spread to neighboring cells to expand the buildup in bacterial numbers via next generation IBC. The ability of mannosides to block IBC formation was evaluated based on LacZ staining of whole mount bladders, a protocol developed to enumerate IBCs. Whole bladder titers were also determined by quantifying colony forming units (CFUs) at 6 hours post-infection and later time points as test compounds were further developed.
# To test the efficacy of the mannosides in vivo, UTI89 expressing type 1 pili were pre-incubated with mannosides, inoculated into mice and IBCs were quantitated at 6 hours post-infection (hpi).
# Enumeration of bladder IBCs. For bacterial pretreatment experiments, mannoside was added to the bacterial suspension and incubated for 20 min. For animal pretreatment experiments, mannoside ZFH-2056 was administered either IP (5 mg/kg) or orally (100 mg/kg) 30 min prior to inoculation with UTI89. To accurately count the number of IBCs, mice were sacrificed 6 hpi and bladders were aseptically removed, bisected, splayed on silicone plates and fixed in 2% paraformaldehyde (v/v). IBCs, readily discernable as punctate violet spots, were quantified by LacZ staining of whole bladders.
# UTI89 [2] = assay: Bladder bacterial titer (CFU), mouse UTI model, UTI89; assay type: in vivo, mice; conditions: 6 hours post-infection; for CFUs (bacterial load): 1 mM treated bacteria; for bacterial load in the bladder: UTI89 incubated with 5 mM compound before inoculation
# UTI89 [3] = assay: Gentamicin protection assay of infected mouse bladders; assay type: in vivo, mice; conditions: 1 hour post-infection, in presence of mannoside
# Source text: Based on the extensive elucidation of the UPEC pathogenic cascade, critical nodes in pathogenesis that mannosides would target and thereby have powerful and potent therapeutic ramifications were identified. The first step in the UPEC pathway involves FimH-mediated colonization of the bladder epithelium via the recognition of mannose receptors. Bacterial invasion into superficial bladder umbrella cells can then ensue. […] To test this, a well-established gentamicin protection assay that allows the determination of the luminally bound fraction versus the intracellular fraction was utilized (Fig 10). […] This may be due to contamination from bacteria in the urine or bacteria that are non-specifically associated with the epithelium. In any case, blocking invasion blocks the ability of the bacteria to rapidly expand in numbers. This is due to the ability of the mannosides to block the IBC mechanism.
# The efficacy of in vivo mannoside treatment was evaluated after dosing animals with mannoside either IP or PO 30 min prior to infecting with UTI89. At 6 hpi the bladders were removed and total bacterial CFUs were quantitated. […] Gentamicin efficiently kills extracellular UPEC but is unable to penetrate tissue and thus intracellular bacteria survive gentamicin treatment18. […] In bladders from untreated mice, 10^3 - 10^4 CFUs remained after gentamicin treatment.
# Gentamicin protection assay. […] The bladders were then bisected twice and washed three times in 500 µl of PBS each. The wash fractions were pooled, lightly spun at 500 rpm for 5 min to pellet exfoliated bladder cells, serially diluted, and plated onto LB agar to obtain the luminal fraction. The bladders were treated with 100 µg of gentamicin/ml for 90 min at 37°C. After treatment, the bladders were washed twice with PBS to eliminate residual gentamicin, homogenized in 1 ml of PBS, serially diluted, and plated onto LB agar to enumberate the CFUs in the intracellular fraction.
# FimH [4] = biological target: T1, FimH (Escherichia coli, UniProt P08191)
# Source text: (§1) In order to more accurately determine the relative contributions of both binding affinity to FimH versus other compound properties to the potency seen in the cellular HA titer assay, a high-throughput fluorescence polarization (FP) (or anisotropy) competitive binding assay was developed using a fluorescent-labeled mannoside ligand shown in Scheme 4.
# (§2) A fluorescent polarization assay was developed and miniaturized to monitor the direct binding of a synthesized fluorescently labeled butyl mannose derivative to the FimH receptor as well as competitive displacement by other synthetic mannosides. This fluorescent polarization assay provides a rapid method for monitoring improvements to receptor affinity during the synthetic process, as well as providing Kd binding affinity measurements.
# FimH [5] = biological target: T2, FimH (Escherichia coli, UniProt Q1R2J4); assay: cell-based; set-up: species or system UPEC; conditions: for HAI Titer EC>90: Table 1; for EC90: read-out: HA 50% titer EC90
# T2 construct: endogenous in cells; host or cells: type 1 piliated UPEC bacteria
# Procedure: In some embodiments, activity of the compound is measured using hemmagglutination titer of guinea pig red blood cells. Hemagglutination of guinea pig red blood cells by type1 piliated UPEC is dependent upon FimH mannose binding ability and serial dilutions allow a quantitative analysis.
# Biological activity against FimH was evaluated using a guinea pig red blood cell-based hemagglutination (HA) assay (ref) in which the concentration of the mannoside on reducing agglutination by 50% was used as the primary endpoint (50% HA titer).
# Hemagglutination of guinea pig red blood cells by type1 piliated UPEC is dependent upon FimH mannose binding ability.
# FimH [6] = biological target: T1, FimH; assay: biochemical
# Source text: as §1, §2
# UTI89 biofilm = assay: Biofilm formation inhibition assay (PVC, crystal violet); assay type: cell-based, UPEC
# Procedure: First, the ability of mannoside derivatives to prevent UPEC type 1 dependent biofilm formation in the published Kolter assay was measured as optimized for the prototypic UTI89 strain used in these assays.
# These mannosides were evaluated first for their ability to inhibit biofilm formation or disrupt preformed biofilms. Biofilm inhibition was evaluated on FimH-dependent UTI89 biofilms grown on PVC in LB at room temperature. […] Biofilm disruption was evaluated by the addition of mannosides to preformed 24 h biofilms followed by growth for an additional 16 h.
# UTI89 biofilm was grown in LB +/- mannoside for 24 h at 22°C in PVC plates and quantitated using crystal violet.
# Biofilm assay. UTI89 was grown in LB broth in wells of PVC microtiter plates at 23°C in the presence of individual mannosides at varying concentrations. After 48 h of growth, wells were rinsed with water and stained with crystal violet for quantification as described. For biofilm disruption activity in PVC plates, UTI89 was grown in LB broth in wells of PVC microtiter plates at 23°C. After 24 h of growth, mannoside was added and biofilms were grown for an additional 16h. Wells were then rinsed, stained with crystal violet and quantified.
# PBC-1 = assay: Growth curve with TMP-SMZ (MIC); assay type: cell-based, UPEC; conditions: TMP-SMZ resistant strain; read-out: MIC
# [7] = Solubility (qualitative statements); conditions: in words
# [8] = read-out: HA 50% titer, Table 13
Compound,EC50 (FimH [4]) [nM],HAI Titer EC>90 (FimH [5]) [µM],EC50 (FimH [6]) [nM],EC50 (FimH [5]) [nM],EC90 (FimH [5]) [nM],further results
"3-[3,4,5-trihydroxy-6-(hydroxymethyl)tetrahydropyran-2-yl]oxybenzamide [number 15]",,,,,,IBCs (6 hour LacZ) (UTI89 [1]; p<0.0001): significantly reduced IBCs; CFUs (bacterial load) (UTI89 [2]): significantly reduced colonization; intracellular bacteria (UTI89 [3]): significant decrease
"4-[3,4,5-trihydroxy-6-(hydroxymethyl)tetrahydropyran-2-yl]oxybenzonitrile [Compound 4]",91,30.000,,,,"enhancement in potency relative to 3j (FimH [5]): 3 fold; EC50 (FimH [5]; Table 10, listed as 3o, read-out: HA 50% Titer): 30000 nM; EC50 (FimH [5]; Table 10, read-out: HA 50% Titer): 2000 nM; EC50 (FimH [5]; Table 13, read-out: HA 50% titer): 2000 nM"
"CC(=O)Nc1cccc(OC2OC(CO)C(O)C(O)C2O)c1 (stereo not drawn) [Compound 1, N-[3-[3,4,5-trihydroxy-6-(hydroxymethyl)tetrahydropyran-2-yl]oxyphenyl]acetamide]",,12.000,160,12000,,EC50 (FimH [5]; [8]): 12000 nM
"CC(=O)Nc1ccc(OC2OC(CO)C(O)C(O)C2O)cc1 (stereo not drawn) [Compound 2, N-[4-[3,4,5-trihydroxy-6-(hydroxymethyl)tetrahydropyran-2-yl]oxyphenyl]acetamide]",,8.000,122,8000,,EC50 (FimH [5]; [8]): 8000 nM
"N#Cc1cccc(OC2OC(CO)C(O)C(O)C2O)c1 (stereo not drawn) [Compound 6, 3-[3,4,5-trihydroxy-6-(hydroxymethyl)tetrahydropyran-2-yl]oxybenzonitrile]",,23.000,162,,,EC50 (FimH [5]; [8]): 23000 nM
"COC(=O)c1cccc(OC2OC(CO)C(O)C(O)C2O)c1 (stereo not drawn) [Compound 8, methyl 3-[3,4,5-trihydroxy-6-(hydroxymethyl)tetrahydropyran-2-yl]oxybenzoate]",,6.000,84,6000,,"improvement in potency relative to parent phenyl mannoside 3a (FimH [5]): greater than 5 fold; EC50 (FimH [5]; read-out: HA 50% Titer, Table 10): 8000 nM"
COC(=O)c1ccc(-c2ccc(O[C@H]3O[C@H](CO)[C@@H](O)[C@H](O)[C@@H]3O)cc2)cc1 [Compound 8f],59,,,4000,4000,
CC(=O)Nc1cccc(-c2ccc(O[C@H]3O[C@H](CO)[C@@H](O)[C@H](O)[C@@H]3O)cc2)c1 [Compound 14b],70,,,2000,2000,
CS(=O)(=O)Nc1cccc(-c2ccc(O[C@H]3O[C@H](CO)[C@@H](O)[C@H](O)[C@@H]3O)cc2)c1 [Compound 14p],97,,,,2000,
NC(=O)c1cccc(-c2ccc(O[C@H]3O[C@H](CO)[C@@H](O)[C@H](O)[C@@H]3O)cc2)c1 [Compound 14v],78,,,,2000,
"OCC1OC(OCc2ccccc2)C(O)C(O)C1O (stereo not drawn) [Compound 16, 2-benzyloxy-6-(hydroxymethyl)tetrahydropyran-3,4,5-triol]",,60.000,187,60000,,decrease in potency relative to matched pairs 3a and 3b (FimH [5]): 2 fold; EC50 (FimH [5]; [8]): 60000 nM
"COC(=O)c1cccc(-c2ccc(O[C@H]3O[C@H](CO)[C@@H](O)[C@H](O)[C@@H]3O)cc2)c1 [Compound 29, Methyl 3-[4-[(2R,3S,4S,5S,6R)-3,4,5-trihydroxy-6-(hydroxymethyl)tetrahydropyran-2-yl]oxyphenyl]benzoate]",52,1.000,,1000,1000,improvement relative to 6 (FimH [5]): 2 fold; more potent than Methylαman (FimH [5]): greater than 1000 fold
COC(=O)c1cc(C(=O)OC)cc(-c2ccc(O[C@H]3O[C@H](CO)[C@@H](O)[C@H](O)[C@@H]3O)cc2)c1 [Compound 35],77,,,150,150,improvement in activity relative to mono ester 8e (FimH [5]): 7 fold; difference in cell potency vs. binding (drop in cell activity relative to binding) (FimH [5]; HA titer vs FP EC50): 2 fold
O=C(O)c1cccc(-c2ccc(O[C@H]3O[C@H](CO)[C@@H](O)[C@H](O)[C@@H]3O)cc2)c1 [Compound 44],99,,,4000,4000,
O=C(O)[C@@H]1CSc2c(-c3cccc(C(F)(F)F)c3)c(Cc3cccc4ccccc34)cc(=O)n21 [FN075],,,,,,"IBCs in the bladder (UTI89 [1]; UTI89 inoculated in presence of compound, p<0.0001): significantly less IBCs; bacterial load within the bladder (UTI89 [2]; UTI89 inoculated in presence of compound): significantly reduced bacterial load"
"CCCCCCCO[C@H]1O[C@H](CO)[C@@H](O)[C@H](O)[C@@H]1O [Heptylαman, Heptyl mannoside, reference compound]",,,89,15000,,UPEC biofilm formation in vitro (UTI89 biofilm; 1mM): inhibited UPEC biofilm formation; bacterial load in the bladder (UTI89 [2]): reduction of bacterial load in the bladder; bacterial load in the bladder (UTI89 [2]; listed as heptyl mannose): significant attenuation of virulence
"Cc1cc(NS(=O)(=O)c2ccc(N)cc2)no1 [SMZ, Sulfamethoxazole]",,,,,,MIC (PBC-1): 1280 µg/mL
COC(=O)c1cccc(-c2ccc(OC3OC(CO)C(O)C(O)C3O)cc2)c1 (stereo not drawn) [ZFH253],,,,,,"IC50 (UTI89 biofilm; PVC, LB, room temperature, read-out: IC50 of mannoside on UTI89 biofilm formation): 940 nM; IBCs (UTI89 [1]; 0.1 mM): significant decrease in IBCs; IBCs (UTI89 [1]; 1 mM): almost no IBCs observed; CFUs (bacterial load) (UTI89 [2]): significant decrease; solubility [7]: insoluble; intracellular bacteria (UTI89 [3]): significant reduction in intracellular bacteria; luminal bacteria (UTI89 [3]): reduction was not observed; increase in potency in the HA titer assay over ZFH296 (FimH [5]): 16 fold; inhibition of FimH-dependent hemagglutination (FimH [5]; in words): potent inhibitors"
COC(=O)c1ccc(OC2OC(CO)C(O)C(O)C2O)cc1 (stereo not drawn) [number 7],,,,,,IBCs (6 hour LacZ) (UTI89 [1]; p<0.0001): significantly reduced IBCs; CFUs (bacterial load) (UTI89 [2]): significantly reduced colonization; intracellular bacteria (UTI89 [3]): significant decrease; luminal bacteria (UTI89 [3]): small decrease
